Data set [1] relates to LNCaP prostate cancer cells (express AR). The conditions noted are these: for pIC50: read-out: Growth Curve LNCaP.
The subject of data set [2] is CV-1 monkey kidney cells (do not express AR). The conditions noted are these: for pIC50: read-out: Growth Curve CV-1.
A further data set deals with T1, Androgen Receptor (AR) (Rattus norvegicus, UniProt P15207).
T1 sequence (P15207 1-902): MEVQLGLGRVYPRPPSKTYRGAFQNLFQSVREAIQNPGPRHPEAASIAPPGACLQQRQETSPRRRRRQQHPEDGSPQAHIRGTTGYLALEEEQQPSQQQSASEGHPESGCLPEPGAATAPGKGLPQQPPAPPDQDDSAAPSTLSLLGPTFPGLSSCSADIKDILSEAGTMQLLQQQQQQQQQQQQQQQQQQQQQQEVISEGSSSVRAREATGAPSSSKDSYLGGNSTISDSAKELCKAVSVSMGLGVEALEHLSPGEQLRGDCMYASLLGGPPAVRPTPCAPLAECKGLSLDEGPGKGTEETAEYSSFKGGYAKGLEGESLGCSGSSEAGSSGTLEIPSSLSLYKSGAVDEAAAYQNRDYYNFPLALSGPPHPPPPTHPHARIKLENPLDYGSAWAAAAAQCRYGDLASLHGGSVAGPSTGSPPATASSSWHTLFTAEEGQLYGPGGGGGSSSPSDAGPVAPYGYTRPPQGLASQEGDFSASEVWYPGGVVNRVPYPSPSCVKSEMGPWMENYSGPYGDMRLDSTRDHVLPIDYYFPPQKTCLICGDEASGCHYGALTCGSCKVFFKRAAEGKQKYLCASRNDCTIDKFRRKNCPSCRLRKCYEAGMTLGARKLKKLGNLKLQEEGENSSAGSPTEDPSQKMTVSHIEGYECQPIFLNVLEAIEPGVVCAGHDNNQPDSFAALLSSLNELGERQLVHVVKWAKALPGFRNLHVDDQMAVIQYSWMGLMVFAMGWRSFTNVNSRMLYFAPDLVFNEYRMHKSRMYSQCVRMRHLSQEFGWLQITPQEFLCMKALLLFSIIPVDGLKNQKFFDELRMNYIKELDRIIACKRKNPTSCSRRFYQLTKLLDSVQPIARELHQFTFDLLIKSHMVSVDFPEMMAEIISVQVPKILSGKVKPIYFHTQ
It counts as binding.

The subject of data set [3] is LNCaP prostate cancer cells (express AR).
Data set [4] shares this test system. In words: cells. Particulars: Homo sapiens, 120 h, read-out: Growth Curve LNCaP.

pIC50: −log10 of the molar value. Where two headings read alike, the source gives them in different places.

Consider `C[C@](O)(CS(=O)(=O)c1ccc(OC(=O)N(CCCl)CCCl)cc1)C(=O)Nc1ccc([N+](=O)[O-])c(C(F)(F)F)c1` [Compound 10], for which the pIC50 in data set [1] was 5.82; in data set [2], 5.59.
Turning to `C[C@](O)(COc1ccc(N(CCCl)CCCl)cc1)C(=O)Nc1ccc(C#N)c(I)c1.Cl` [Compound 7], in data set [1], the “cytotoxicity / cell growth inhibition in LNCaP cells” value is “potent and selective cell growth inhibition effect”; the pIC50 is 6.48. Further, in data set [2], the pIC50 was 5.58.
As for `OCCN(CCO)c1ccc(O)cc1` [Compound 4], on Androgen Receptor (AR), the “Ki (nM)” value is “DNB”. For the same compound, the “cytotoxicity in LNCaP cells” value in data set [3] was “nontoxic”.
As to `C[C@](O)(COc1ccc(N(CCCl)CCCl)cc1)C(=O)Nc1ccc(C#N)c(C(F)(F)F)c1.Cl` [Compound 1], in data set [1], the pIC50 was 6.07. Besides, in data set [2], the “cytotoxicity in CV-1 cells” value is on record as “cytotoxic”, the “potency in CV-1 cells less than in LNCaP cells” value is reported as “approximately 3.5 fold” and the pIC50 was 5.71.
On to `C[C@](O)(COc1ccc(N(CCO)CCO)cc1)C(=O)Nc1ccc(C#N)c(C(F)(F)F)c1` [Compound 2], for which, in data set [1], the “cytotoxicity / cell growth inhibition in LNCaP cells” value is reported as “not cytotoxic” and the max inhibition result was “Trypan Blue (max 65% inhibition)”. Besides, the “cytotoxicity in CV-1 cells” value in data set [2] is listed as “not cytotoxic”. The pIC50 in data set [4] was 6.11.
Regarding `C[C@](O)(COc1ccc(N(CCCl)CCCl)cc1)C(=O)Nc1ccc([N+](=O)[O-])c(C(F)(F)F)c1.Cl` [Compound 8], in data set [1], the “cytotoxicity / cell growth inhibition in LNCaP cells” value was “potent and selective cell growth inhibition effect”; the pIC50 was 6.09. Further, in data set [2], the pIC50 was 5.28.
Consider `C[C@](O)(CSc1ccc(OC(=O)N(CCCl)CCCl)cc1)C(=O)Nc1ccc([N+](=O)[O-])c(C(F)(F)F)c1` [Compound 6], for which the results for the pIC50 in data set [1] and in data set [2] were 6.10 and 5.33, respectively.
